Source: paper PMC8050276, “Estradiol analogs attenuate autophagy, cell migration and invasion by direct and selective inhibition of TRPML1, independent of estrogen receptors” (Scientific Reports, 2021)
Several values for one entry are separate records, joined by “and”; a condition that tells them apart may be missing. Identical values can stand only once.

Assays:
hTRPML3-YFP = target: T1, hTRPML3-YFP (Homo sapiens, UniProt Q8TDD5); assay: Fluo-4 Ca2+ influx assay, HEK293 stably expressing hTRPML3-YFP, activated with ML-SA1; assay type: cell-based; settings: 12.5 µM compound, 5 µM ML-SA1, Fig. 1f
T1 construct: expressed in transfected cells
Method: (§1) To identify inhibitors of TRPML1 and TRPML3, the Spectrum Collection compound library (MS Discoveries; 2000 compounds) and additional 430 bioactive compounds were screened. To this end, fluorometric Ca^2+ influx assays were performed by using the calcium dye Fluo-4/AM (Invitrogen, Thermo Fisher Scientific, Waltham, MA, USA) and a custom-made fluorescence imaging plate reader built into a robotic liquid handling station (Freedom Evo 150, Tecan, Männedorf, Switzerland). All measurements were done in a HEPES buffered solution (HBS), containing 132 mM NaCl, 6 mM KCl, 1 mM MgCl2, 1 mM CaCl2, 5.5 mM D-glucose, 10 mM HEPES, pH 7.4. Screening compounds dissolved in DMSO (10 mM) were prediluted in 150 mM NaCl, 20 mM HEPES, pH 7.4, to a concentration of 200 µM. For primary screens, HEK293 stably expressing plasma membrane-targeted TRPML1 or TRPML3 were trypsinized and resuspended in cell culture medium supplemented with 4 µM Fluo-4/AM. After incubation at 37 °C for 30 min, the cell suspension was briefly centrifuged resuspended in HBS, and dispensed into black pigmented, clear-bottom 384-well microwell plates (Greiner μClear, Frickenhausen, Germany). Plates were placed into the FLIPR and fluorescence signals (excitation 470 nm, emission 515 nm) were recorded with a Zyla 5.5 camera (Andor, Belfast, UK) and the μManager software like previously described. In a first video, compound libraries were successively added to the cells with the Tecan 96-tip multichannel arm to a final concentration of 20 µM to map unspecific effects like autofluorescence or toxicity. In a second step the agonist ML-SA1 was pipetted in each well and fluorescence signals were recorded for 10 min. Analyses were done by calculating fluorescence intensities for each well and background areas with ImageJ (National Institutes of Health, Bethesda, MD, USA). Finally, the background was subtracted and the fluorescence intensities were normalized to initial intensities (F/F0). Concentration response curves were generated by the same procedure but compounds were manually prediluted in 96-well plates containing HBS, now supplemented with 0.1% bovine serum albumin. Here data was fitted to a four-parameter Hill equation to obtain Imin, Imax, IC50), and the Hill coefficient n.

hTRPML1∆NC-YFP [1] = target: hTRPML1∆NC-YFP (Homo sapiens, UniProt Q9GZU1); assay type: cell-based; settings: for inhibitory effect on TRPML1: 12.5 µM compound, 5 µM ML-SA1, Fig. 1f; for IC50: read-out: TRPML1 IC50, concentration-response retest of screening hits and steroids, Fluo-4, 5 µM ML-SA1, Fig. 1b-e, S1; for TRPML1-inhibitory activity, SAR summary: random screening or consecutive experiments
Method: as §1, with “All measurements were done in a HEPES buffered solution (HBS), containing 132 mM NaCl, 6 mM KCl, 1 mM MgCl2, 1 mM CaCl2, 5.5 mM D-glucose, 10 mM HEPES, pH 7.4.” left out

hTRPML1∆NC-YFP [2] = assay type: cell-based, human; settings: for primary screen result: 20 µM compound, 5 µM ML-SA1, TRPML1 and TRPML3; for TRPML1 versus TRPML3 selectivity: Fluo-4, TRPML1 vs TRPML3, 5 µM ML-SA1
Method: as §1, with “All measurements were done in a HEPES buffered solution (HBS), containing 132 mM NaCl, 6 mM KCl, 1 mM MgCl2, 1 mM CaCl2, 5.5 mM D-glucose, 10 mM HEPES, pH 7.4.” left out

Sequence of hTRPML1∆NC-YFP (Homo sapiens, UniProt Q9GZU1) (Q9GZU1 whole entry): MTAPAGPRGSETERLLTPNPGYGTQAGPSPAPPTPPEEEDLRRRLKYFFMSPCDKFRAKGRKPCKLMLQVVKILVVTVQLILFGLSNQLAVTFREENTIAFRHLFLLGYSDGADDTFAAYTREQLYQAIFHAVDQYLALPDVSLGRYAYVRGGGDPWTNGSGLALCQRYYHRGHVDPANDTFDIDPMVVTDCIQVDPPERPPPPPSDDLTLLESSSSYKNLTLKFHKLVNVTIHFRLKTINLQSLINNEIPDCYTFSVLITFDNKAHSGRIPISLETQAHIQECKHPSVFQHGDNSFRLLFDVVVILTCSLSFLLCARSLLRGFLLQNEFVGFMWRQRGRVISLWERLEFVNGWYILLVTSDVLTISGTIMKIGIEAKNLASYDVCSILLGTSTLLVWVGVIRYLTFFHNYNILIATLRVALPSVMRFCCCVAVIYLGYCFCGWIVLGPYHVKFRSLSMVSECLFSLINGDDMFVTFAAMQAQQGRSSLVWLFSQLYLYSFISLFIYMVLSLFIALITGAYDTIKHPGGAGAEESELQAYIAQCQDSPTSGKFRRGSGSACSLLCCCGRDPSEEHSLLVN
T1 sequence (Q8TDD5 whole entry): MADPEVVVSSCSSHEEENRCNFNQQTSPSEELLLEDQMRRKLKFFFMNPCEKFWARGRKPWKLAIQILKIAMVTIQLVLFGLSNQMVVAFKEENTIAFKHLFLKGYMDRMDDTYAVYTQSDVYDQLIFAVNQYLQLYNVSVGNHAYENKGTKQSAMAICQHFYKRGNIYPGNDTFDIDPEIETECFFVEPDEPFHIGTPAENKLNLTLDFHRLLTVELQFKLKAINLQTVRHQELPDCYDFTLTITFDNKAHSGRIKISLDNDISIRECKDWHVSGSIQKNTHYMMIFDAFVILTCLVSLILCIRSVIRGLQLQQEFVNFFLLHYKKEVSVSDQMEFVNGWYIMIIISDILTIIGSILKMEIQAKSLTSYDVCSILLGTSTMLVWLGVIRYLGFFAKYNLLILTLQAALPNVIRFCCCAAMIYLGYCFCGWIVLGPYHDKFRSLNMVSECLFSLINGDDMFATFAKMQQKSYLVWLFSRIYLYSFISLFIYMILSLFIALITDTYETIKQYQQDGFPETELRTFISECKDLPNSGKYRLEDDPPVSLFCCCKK

| Compound | inhibitory effect on TRPML3 (hTRPML3-YFP) | inhibitory effect on TRPML1 (hTRPML1∆NC-YFP [1]) | other results |
| --- | --- | --- | --- |
| C#CC1(O)CC[C@H]2[C@@H]3CCC4=CC(=O)CC[C@@H]4[C@H]3CC[C@@]21CC (mixture of isomers) [norgestrel, reference compound] | no effect | no effect | – |
| CC(=O)O[C@@H]1C=C[C@]2(C)C(C[C@@H](OC(C)=O)[C@]3(C)C4=CC(=O)O[C@H](c5ccoc5)[C@@]4(C)CCC23)C1(C)C (some centres unmarked) [DGA, deoxygedunol acetate, reference compound] | – | – | primary screen result (hTRPML1∆NC-YFP [2]): TRPML1 selective hit |
| C=C1C[C@H]2[C@@H]3C=C(C)C4=CC(=O)CC[C@]4(C)[C@H]3CC[C@]2(C)[C@@]1(OC(C)=O)C(C)=O [MGA, melengestrol acetate, reference compound] | – | – | IC50 (hTRPML1∆NC-YFP [1]): 19 µM and 18.6 µM; primary screen result (hTRPML1∆NC-YFP [2]): TRPML1 selective hit; TRPML1 versus TRPML3 selectivity (hTRPML1∆NC-YFP [2]): highly TRPML1-selective |
| O=C(O)CCCCCCCCCCCC[C@@H]1C=CCC1 [chaulmoorgic acid, reference compound] | – | – | primary screen result (hTRPML1∆NC-YFP [2]): TRPML1 selective hit |
| CC(C)CCC[C@@H](C)[C@H]1CC[C@H]2[C@@H]3CC=C4C[C@@H](O)CC[C@]4(C)[C@H]3CC[C@]12C [cholesterol, reference compound] | no effect | no effect | – |
| C[C@]12CCC3c4ccc(OS(=O)(=O)[O-])cc4CCC3C1CC[C@H]2O.[Na+] (some centres unmarked) [estradiol-3-sulfate sodium salt, reference compound] | – | – | TRPML1-inhibitory activity, SAR summary (hTRPML1∆NC-YFP [1]): eliminated TRPML1-inhibitory activity |
| COc1ccc2c(c1)CC[C@@H]1[C@@H]2CC[C@]2(C)C(=O)CC[C@@H]12 [estrone 3-methyl ether, reference compound] | no effect | no effect | – |
| C[C@]12CC[C@@H]3c4ccc(O)cc4CC[C@H]3[C@@H]1CCC2=O [estrone, reference compound] | no effect | no effect | – |
| C#C[C@]1(O)CC[C@H]2[C@@H]3CCc4cc(O)ccc4[C@H]3CC[C@@]21C [ethinylestradiol, reference compound] | – | – | TRPML1-inhibitory activity, SAR summary (hTRPML1∆NC-YFP [1]): only weakly active; TRPML1 versus TRPML3 selectivity (hTRPML1∆NC-YFP [2]): stronger inhibitory effects on TRPML1 than on TRPML3 |
| C[C@]12CC[C@@H]3c4ccc(O)cc4C[C@@H](CCCCCCCCC[S+]([O-])CCCC(F)(F)C(F)(F)F)[C@H]3[C@@H]1CC[C@@H]2O (some centres unmarked) [fulvestrant, reference compound] | no effect | no effect | – |
| C[C@]12CCC(=O)C=C1CC[C@@H]1[C@@H]2[C@@H](O)C[C@@]2(C)[C@H]1CC[C@]2(O)C(=O)CO [hydrocortisone, reference compound] | no effect | no effect | – |
| C#C[C@]1(O)CC[C@H]2[C@@H]3CCc4cc(OC)ccc4[C@H]3CC[C@@]21C [mestranol, reference compound] | – | strongest effect | TRPML1-inhibitory activity, SAR summary (hTRPML1∆NC-YFP [1]): considerable activity; TRPML1 versus TRPML3 selectivity (hTRPML1∆NC-YFP [2]): stronger inhibitory effects on TRPML1 than on TRPML3 |
| CC(=O)[C@H]1CC[C@H]2[C@@H]3CCC4=CC(=O)CC[C@]4(C)[C@H]3CC[C@]12C [progesterone, reference compound] | – | much weaker inhibitory effects | IC50 (hTRPML1∆NC-YFP [1]): 12 µM |
| C[C@]12CC[C@H]3[C@@H](CCC4=CC(=O)CC[C@@]43C)[C@@H]1CC[C@@H]2O [testosterone, reference compound] | – | much weaker inhibitory effects | – |
